Measurements reported in ChEMBL document CHEMBL4393715, “Design, synthesis and biological evaluation of the thioether-containing lenalidomide analogs with anti-proliferative activities” (Eur J Med Chem, 2019).

Columns and labels:
[1] = Antiproliferative activity against human Mino cells measured after 72 hrs by CellTiter96 Aqueous non-radioactive cell proliferation assay; assay type: functional, cell-based
[2] = test system: MV4-11; assay: Antiproliferative activity against human MV411 cells measured after 168 hrs by CellTiter96 Aqueous non-radioactive cell proliferation assay; assay type: functional, cell-based; details: MV4-11, 168 h
[3] = test system: MM1.S; assay: Antiproliferative activity against human MM1S cells measured after 168 hrs by CellTiter96 Aqueous non-radioactive cell proliferation assay; assay type: functional, cell-based
[4] = test system: PBMC; assay: Antiinflammatory activity in human PBMC cells assessed as reduction in LPS-induced TNF-alpha production preincubated for 1 hr followed by LPS addition and measured after 18 to 20 hrs by ELISA; assay type: functional, cell-based
[5] = Half-life in BALB/c mouse at 5 mg/kg, iv and measured up to 24 hrs by LC-MS/MS analysis; assay type: ADME, organism-based; details: in vivo
[6] = Cmax in BALB/c mouse at 20 mg/kg, po and measured up to 24 hrs by LC-MS/MS analysis; assay type: ADME, organism-based; design: dose 20 mg/kg, route oral; details: in vivo
[7] = AUC (infinity) in BALB/c mouse at 5 mg/kg, iv and measured up to 24 hrs by LC-MS/MS analysis; assay type: ADME, organism-based; design: dose 5 mg/kg, route intravenous, time infinity; details: in vivo
[8] = AUC (infinity) in BALB/c mouse at 20 mg/kg, po and measured up to 24 hrs by LC-MS/MS analysis; assay type: ADME, organism-based; design: dose 20 mg/kg, route oral, time infinity; details: in vivo
[9] = Tmax in BALB/c mouse at 20 mg/kg, po and measured up to 24 hrs by LC-MS/MS analysis; assay type: ADME, organism-based; details: in vivo
[10] = MRT (infinity) in BALB/c mouse at 5 mg/kg, iv and measured up to 24 hrs by LC-MS/MS analysis; assay type: ADME, organism-based; details: in vivo
[11] = Volume of distribution at steady state in BALB/c mouse at 5 mg/kg, iv and measured up to 24 hrs by LC-MS/MS analysis; assay type: ADME, organism-based; details: in vivo, read-out: Vdss
[12] = Oral bioavailability in BALB/c mouse at 20 mg/kg and measured up to 24 hrs by LC-MS/MS analysis; assay type: ADME, organism-based; details: in vivo
[13] = Clearance in BALB/c mouse at 5 mg/kg, iv and measured up to 24 hrs by LC-MS/MS analysis; assay type: ADME, organism-based; details: in vivo
[14] = Terminal elimination half life in BALB/c mouse at 20 mg/kg, po and measured up to 24 hrs by LC-MS/MS analysis; assay type: ADME, organism-based; details: in vivo, read-out: LambdaZ (converted)
[15] = test system: RPMI-8226; assay: Antiproliferative activity against human RPMI8226 cells measured after 72 hrs by CellTiter96 Aqueous non-radioactive cell proliferation assay; assay type: functional, cell-based; details: RPMI-8226, 72 h
[16] = test system: THP-1; assay: Antiproliferative activity against human THP1 cells measured after 168 hrs by CellTiter96 Aqueous non-radioactive cell proliferation assay; assay type: functional, cell-based; details: THP-1, 168 h
[17] = test system: U-266; assay: Antiproliferative activity against human U266 cells measured after 72 hrs by CellTiter96 Aqueous non-radioactive cell proliferation assay; assay type: functional, cell-based; details: U-266, 72 h
[18] = test system: Kasumi 1; assay: Antiproliferative activity against human Kasumi-1 cells measured after 168 hrs by CellTiter96 Aqueous non-radioactive cell proliferation assay; assay type: functional, cell-based; details: Kasumi 1, 168 h
[19] = test system: PBMC; assay: Cytotoxicity against human PBMC cells by CellTiter96 Aqueous non-radioactive cell proliferation assay; assay type: cell-based
[20] = test system: Raji; assay: Antiproliferative activity against human Raji cells measured after 168 hrs by CellTiter96 Aqueous non-radioactive cell proliferation assay; assay type: functional, cell-based
[21] = test system: JeKo-1; assay: Antiproliferative activity against human JeKo1 cells measured after 72 hrs by CellTiter96 Aqueous non-radioactive cell proliferation assay; assay type: functional, cell-based; details: JeKo-1, 72 h
[22] = test system: Z-138; assay: Antiproliferative activity against human Z138 cells measured after 72 hrs by CellTiter96 Aqueous non-radioactive cell proliferation assay; assay type: functional, cell-based; details: Z-138, 72 h
[23] = test system: RPMI-8226; assay: Antitumour activity against human RPMI8226 cells xenografted in CB-17 SCID mouse assessed as inhibition of tumour growth at 60 mg/kg/day, po measured twice a week for 21 days relative to control; assay type: functional; design: scale not given: the % may be the effect or the level left
[24] = test system: RPMI-8226; assay: Antitumour activity against human RPMI8226 cells xenografted in CB-17 SCID mouse assessed as tumour volume at 60 mg/kg/day, po measured after day 18 (reference value: 153 to 154 mm3); assay type: functional
[25] = Toxicity in CB-17 SCID mouse xenografted with human RPMI8226 cells assessed as body weight at 60 mg/kg/day, po and measured after day 18 (reference value: 20.1 to 20.4 g); assay type: organism-based; details: in vivo
[26] = test system: RPMI-8226; assay: Antitumour activity against human RPMI8226 cells xenografted in CB-17 SCID mouse assessed as relative tumour volume at 60 mg/kg/day, po measured twice a week for 21 days; assay type: functional
[27] = Toxicity in CB-17 SCID mouse xenografted with human RPMI8226 cells assessed as increase in body weight at 60 mg/kg/day, po and measured after day 18 (reference value: 13.4%); assay type: organism-based; details: in vivo
[28] = Toxicity in CB-17 SCID mouse xenografted with human RPMI8226 cells assessed as mortality at 60 mg/kg/day, po and measured after day 18; assay type: organism-based; details: in vivo

N#Cc1ccccc1CSc1cccc2c1CN(C1CCC(=O)NC1=O)C2=O (configuration not stated)
IC50 [1]: 30.5 nM
IC50 [2]: > 20000 nM
IC50 [3]: 2.9 nM

CCNC(=O)c1ccc(CSc2cccc3c2CN(C2CCC(=O)NC2=O)C3=O)cc1 (configuration not stated)
IC50 [1]: 4.2 nM

Nc1ccc2c(c1)CN(C1CCC(=O)NC1=O)C2=O (configuration not stated)
IC50 [4]: > 100000 nM

O=C1CCC(N2Cc3c(SCc4ccc(CN5CCOCC5)cc4)cccc3C2=O)C(=O)N1 (configuration not stated)
half-life [5]: 52.8 min
Cmax [6]: 496 ng/mL
AUC(0-inf) [7]: 397 ng·h/mL
AUC(0-inf) [8]: 288 ng·h/mL
Tmax [9]: 8.4 min
IC50 [1]: 3.3 nM
MRT inf [10]: 22.2 min
Vd [11]: 4.69 L/kg
bioavailability [12]: 17.6%
clearance [13]: 210 mL/min/kg
half-life [14]: 85.8 min

O=C1CCC(N2Cc3c(cccc3S(=O)(=O)Cc3ccc(CN4CCOCC4)cc3)C2=O)C(=O)N1 (configuration not stated)
IC50 [1]: > 20000 nM

O=C1CCC(N2Cc3c(SCc4cccc(Cl)c4)cccc3C2=O)C(=O)N1 (configuration not stated)
IC50 [1]: 2.4 nM
IC50 [2]: > 20000 nM
IC50 [3]: 1.1 nM

O=C1CCC(N2Cc3c(SCc4ccccc4)cccc3C2=O)C(=O)N1 (configuration not stated)
IC50 [1]: 6.3 nM
IC50 [2]: > 20000 nM
IC50 [3]: 1.1 nM

CCCCCSc1cccc2c1CN(C1CCC(=O)NC1=O)C2=O (configuration not stated)
IC50 [1]: 160 nM
IC50 [2]: > 20000 nM
IC50 [3]: 1.1 nM

N#Cc1cccc(CSc2cccc3c2CN(C2CCC(=O)NC2=O)C3=O)c1 (configuration not stated)
IC50 [1]: 8 nM
IC50 [2]: > 20000 nM
IC50 [3]: 1.4 nM

Cc1ccc(NC(=O)NCc2ccc3c(c2)CN(C2CCC(=O)NC2=O)C3=O)cc1Cl (configuration not stated)
IC50 [15]: 5.5 nM
IC50 [1]: 0.4 nM
IC50 [16]: 1.5 nM
IC50 [17]: 2 nM
IC50 [18]: 0.8 nM
IC50 [2]: 0.2 nM
IC50 [19]: 0.3 nM
IC50 [20]: 20.4 nM
IC50 [21]: 1.2 nM
IC50 [22]: 0.4 nM
IC50 [3]: 0.3 nM

N#Cc1ccc(CSc2cccc3c2CN(C2CCC(=O)NC2=O)C3=O)cc1 (configuration not stated)
IC50 [15]: 200 nM
IC50 [1]: 3.7 nM
IC50 [16]: > 20000 nM
IC50 [17]: > 20000 nM
IC50 [18]: > 20000 nM
IC50 [2]: > 20000 nM
IC50 [19]: > 20000 nM
IC50 [20]: > 20000 nM
IC50 [21]: > 20000 nM
IC50 [22]: > 20000 nM
IC50 [3]: 1.3 nM

CC1CN(C(=O)c2ccc(CSc3cccc4c3CN(C3CCC(=O)NC3=O)C4=O)cc2)CC(C)O1 (configuration not stated)
IC50 [1]: 6.5 nM

Cc1ccccc1CSc1cccc2c1CN(C1CCC(=O)NC1=O)C2=O (configuration not stated)
IC50 [1]: 16.6 nM
IC50 [2]: > 20000 nM
IC50 [3]: 1.8 nM

CN1CCN(C(=O)c2ccc(CSc3cccc4c3CN(C3CCC(=O)NC3=O)C4=O)cc2)CC1 (configuration not stated)
IC50 [1]: 3.4 nM

O=C1CCC(N2Cc3c(SCc4ccc(Cl)cc4)cccc3C2=O)C(=O)N1 (configuration not stated)
half-life [5]: 113 min
IC50 [15]: 5.5 nM
Cmax [6]: 283 ng/mL
Activity [23]: 52.31%
Activity [24]: 1022 mm3
AUC(0-inf) [7]: 428 ng·h/mL
AUC(0-inf) [8]: 755 ng·h/mL
Tmax [9]: 49.8 min
IC50 [1]: 2.3 nM
IC50 [16]: > 20000 nM
IC50 [17]: > 20000 nM
Activity [25]: 22.4 g
IC50 [18]: > 20000 nM
IC50 [2]: > 20000 nM
IC50 [19]: > 20000 nM
MRT inf [10]: 56.4 min
IC50 [20]: > 20000 nM
Vd [11]: 11.1 L/kg
IC50 [21]: > 20000 nM
fold change (FC) [26]: 6.62
bioavailability [12]: 39.2%
clearance [13]: 196 mL/min/kg
Activity [27]: 9.8%
IC50 [22]: > 20000 nM
Activity [28]: Non-Toxic
IC50 [3]: 1.1 nM
half-life [14]: 107 min

O=C1CCC(N2Cc3c(SCc4ccccc4F)cccc3C2=O)C(=O)N1 (configuration not stated)
IC50 [1]: 2.9 nM
IC50 [2]: > 20000 nM
IC50 [3]: 0.6 nM

Nc1ccc2c(c1)C(=O)N(C1CCC(=O)NC1=O)C2 (configuration not stated)
IC50 [4]: > 100000 nM
